Source: patent US9708314B2, “Heterocyclic amide compound” (NISSAN CHEMICAL INDUSTRIES, LTD., priority 2013, dated 2017)

Columns and labels:
Type in all cases: in vivo
Avena fatua = assay: Test Example 4: herbicidal effect by application to foliage (diluvial soil, plastic box); details: Application herbicide amount 320 g/ha
Outline: (§1)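 Emulsion-formulated compound, diluted to a predetermined g/ha dose, applied by small sprayer to leaves and stems of 14-day-old seedlings grown in sterilized diluvial soil. Effect rated on 0–5 herbicidal-ratio scale three weeks on.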

[1] = system: Echinochloa crus-galli var. crus-galli; assay: as above; details: Application herbicide amount 320 g/ha
Outline: as §1

Abutilon theophrasti = assay: as above; details: Application herbicide amount 320 g/ha
Outline: as §1

Setaria viridis = assay: as above; details: Application herbicide amount 320 g/ha
Outline: as §1

Lolium multiflorum Lam. = assay: as above; details: Application herbicide amount 320 g/ha
Outline: as §1

Chenopodium album = assay: as above; details: Application herbicide amount 320 g/ha
Outline: as §1

Veronica persica = assay: as above; details: Application herbicide amount 320 g/ha
Outline: as §1

Apera spica-venti. = assay: as above; details: Application herbicide amount 320 g/ha
Outline: as §1

Alopecurus myosuroides = assay: as above; details: Application herbicide amount 320 g/ha
Outline: as §1

[2] = system: Beta vulgaris ssp. vulgaris; assay: Test Example 4: effect on crop by application to foliage (diluvial soil, plastic box); details: Application herbicide amount 320 g/ha; effect on crop
Outline: as §1

[3] = system: directly sowed Oryza sativa; assay: as above; details: Application herbicide amount 320 g/ha; effect on crop
Outline: as §1

Triticum aestivum = assay: as above; details: Application herbicide amount 320 g/ha; effect on crop
Outline: as §1

Zea mays = assay: as above; details: Application herbicide amount 320 g/ha; effect on crop
Outline: as §1

Glycine max = assay: as above; details: Application herbicide amount 320 g/ha; effect on crop
Outline: as §1

Brassica campestris L. = assay: as above; details: Application herbicide amount 320 g/ha; effect on crop
Outline: as §1

Monochoria vaginalis = assay: Test Example 2: herbicidal activity, application during weed generation in submerged conditions; details: Eighteenth Table; application herbicide amount 320 g/ha
Outline: (§2)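 Post-emergence application under submerged conditions: water-diluted emulsion dosed onto the water surface (g/ha) when weeds reach one- to two-leaf stage. Soil flooded to 4 cm; greenhouse 25–30 °C. Herbicidal ratio graded in six classes, 0 (≤5%) to 5 (≥90%), at three weeks.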

[4] = system: Echinochloa oryzacola Vasing.; assay: as above; details: Eighteenth Table; application herbicide amount 320 g/ha
Outline: as §2

Scirpus juncoides = assay: as above; details: Eighteenth Table; application herbicide amount 320 g/ha
Outline: as §2

| SMILES | I (Avena fatua) | H [1] | M (Abutilon theophrasti) | G (Setaria viridis) | K (Lolium multiflorum Lam.) | O (Chenopodium album) | R (Veronica persica) | L (Apera spica-venti.) | J (Alopecurus myosuroides) | f [2] | d [3] | e (Triticum aestivum) | b (Zea mays) | c (Glycine max) | g (Brassica campestris L.) | C (Monochoria vaginalis) herbicidal ratio grade (Monochoria vaginalis) | A (Echinochloa oryzicola Vasing.) herbicidal ratio grade [4] | B (Scirpus juncoides) herbicidal ratio grade (Scirpus juncoides) |
| --- | --- | --- | --- | --- | --- | --- | --- | --- | --- | --- | --- | --- | --- | --- | --- | --- | --- | --- |
| Cc1nnc(NC(=O)c2ccc(C(F)(F)F)n3c(-c4cccc(Cl)n4)nnc23)o1 [1-055] | 1 (Herbicidal ratio of 5% or more and less than 20%) | 4 (Herbicidal ratio of 70% or more and less than 90%) | 5 (Herbicidal ratio of 90% or more (almost completely withered)) | 3 (Herbicidal ratio of 40% or more and less than 70%) | 2 (Herbicidal ratio of 20% or more and less than 40%) | 5 (Herbicidal ratio of 90% or more (almost completely withered)) | 4 (Herbicidal ratio of 70% or more and less than 90%) | 3 (Herbicidal ratio of 40% or more and less than 70%) | 3 (Herbicidal ratio of 40% or more and less than 70%) | 5 (Herbicidal ratio of 90% or more (almost completely withered)) | 3 (Herbicidal ratio of 40% or more and less than 70%) | 1 (Herbicidal ratio of 5% or more and less than 20%) | 0 (Herbicidal ratio of 5% or less (almost no effect)) | 0 (Herbicidal ratio of 5% or less (almost no effect)) | 4 (Herbicidal ratio of 70% or more and less than 90%) | 3 (Herbicidal ratio of 40% or more and less than 70%) | 3 (Herbicidal ratio of 40% or more and less than 70%) | 3 (Herbicidal ratio of 40% or more and less than 70%) |
| Cc1cc(-c2nnc3c(C(=O)Nc4nnc(C)o4)ccc(C(F)(F)F)n23)n(C)n1 [1-056] | 3 (Herbicidal ratio of 40% or more and less than 70%) | 5 (Herbicidal ratio of 90% or more (almost completely withered)) | 5 (Herbicidal ratio of 90% or more (almost completely withered)) | 5 (Herbicidal ratio of 90% or more (almost completely withered)) | 2 (Herbicidal ratio of 20% or more and less than 40%) | 5 (Herbicidal ratio of 90% or more (almost completely withered)) | 5 (Herbicidal ratio of 90% or more (almost completely withered)) | 3 (Herbicidal ratio of 40% or more and less than 70%) | 2 (Herbicidal ratio of 20% or more and less than 40%) | 5 (Herbicidal ratio of 90% or more (almost completely withered)) | 4 (Herbicidal ratio of 70% or more and less than 90%) | 1 (Herbicidal ratio of 5% or more and less than 20%) | 4 (Herbicidal ratio of 70% or more and less than 90%) | 4 (Herbicidal ratio of 70% or more and less than 90%) | 5 (Herbicidal ratio of 90% or more (almost completely withered)) | 4 (Herbicidal ratio of 70% or more and less than 90%) | 5 (Herbicidal ratio of 90% or more (almost completely withered)) | 4 (Herbicidal ratio of 70% or more and less than 90%) |
| Cc1nnc(NC(=O)c2ccc(C(F)(F)F)n3c(-c4cccs4)nnc23)o1 [1-057] | 3 (Herbicidal ratio of 40% or more and less than 70%) | 4 (Herbicidal ratio of 70% or more and less than 90%) | 5 (Herbicidal ratio of 90% or more (almost completely withered)) | 4 (Herbicidal ratio of 70% or more and less than 90%) | 2 (Herbicidal ratio of 20% or more and less than 40%) | 5 (Herbicidal ratio of 90% or more (almost completely withered)) | 5 (Herbicidal ratio of 90% or more (almost completely withered)) | 2 (Herbicidal ratio of 20% or more and less than 40%) | 2 (Herbicidal ratio of 20% or more and less than 40%) | 5 (Herbicidal ratio of 90% or more (almost completely withered)) | 3 (Herbicidal ratio of 40% or more and less than 70%) | 0 (Herbicidal ratio of 5% or less (almost no effect)) | 0 (Herbicidal ratio of 5% or less (almost no effect)) | 1 (Herbicidal ratio of 5% or more and less than 20%) | 3 (Herbicidal ratio of 40% or more and less than 70%) | 3 (Herbicidal ratio of 40% or more and less than 70%) | 2 (Herbicidal ratio of 20% or more and less than 40%) | 3 (Herbicidal ratio of 40% or more and less than 70%) |
| Cc1nnc(NC(=O)c2ccc(C(F)(F)F)n3c(-c4cncs4)nnc23)o1 [1-058] | 3 (Herbicidal ratio of 40% or more and less than 70%) | 5 (Herbicidal ratio of 90% or more (almost completely withered)) | 5 (Herbicidal ratio of 90% or more (almost completely withered)) | 5 (Herbicidal ratio of 90% or more (almost completely withered)) | 3 (Herbicidal ratio of 40% or more and less than 70%) | 5 (Herbicidal ratio of 90% or more (almost completely withered)) | 5 (Herbicidal ratio of 90% or more (almost completely withered)) | 2 (Herbicidal ratio of 20% or more and less than 40%) | 3 (Herbicidal ratio of 40% or more and less than 70%) | 5 (Herbicidal ratio of 90% or more (almost completely withered)) | 4 (Herbicidal ratio of 70% or more and less than 90%) | 1 (Herbicidal ratio of 5% or more and less than 20%) | 5 (Herbicidal ratio of 90% or more (almost completely withered)) | 4 (Herbicidal ratio of 70% or more and less than 90%) | 4 (Herbicidal ratio of 70% or more and less than 90%) | 4 (Herbicidal ratio of 70% or more and less than 90%) | 4 (Herbicidal ratio of 70% or more and less than 90%) | 5 (Herbicidal ratio of 90% or more (almost completely withered)) |
| C#CCSc1nnc2c(C(=O)Nc3nnc(C)o3)ccc(C(F)(F)F)n12 [1-065] | 1 (Herbicidal ratio of 5% or more and less than 20%) | 1 (Herbicidal ratio of 5% or more and less than 20%) | 3 (Herbicidal ratio of 40% or more and less than 70%) | 1 (Herbicidal ratio of 5% or more and less than 20%) | 0 (Herbicidal ratio of 5% or less (almost no effect)) | 5 (Herbicidal ratio of 90% or more (almost completely withered)) | 3 (Herbicidal ratio of 40% or more and less than 70%) | 0 (Herbicidal ratio of 5% or less (almost no effect)) | 0 (Herbicidal ratio of 5% or less (almost no effect)) | 4 (Herbicidal ratio of 70% or more and less than 90%) | 3 (Herbicidal ratio of 40% or more and less than 70%) | 0 (Herbicidal ratio of 5% or less (almost no effect)) | 0 (Herbicidal ratio of 5% or less (almost no effect)) | 0 (Herbicidal ratio of 5% or less (almost no effect)) | 2 (Herbicidal ratio of 20% or more and less than 40%) | 2 (Herbicidal ratio of 20% or more and less than 40%) | 1 (Herbicidal ratio of 5% or more and less than 20%) | 2 (Herbicidal ratio of 20% or more and less than 40%) |
